From patent publication US10842829B2, “Natural product to improve immunity and combat viral diseases, bacterial diseases, fungal diseases, and cancer diseases” (priority 2017, dated 2020) come the findings set out here.

For assay [1], the system named is Streptococcus isolated from cow's milk. As to the kind of experiment: Streptococcus germs cultured in a lab setting.
For assay [2], the system named is HT-1080 cells (fibrosarcoma cell line). As to the kind of experiment: XTT proliferation assay on HT-1080 cells. It is filed as cell-based. The following applies: Homo sapiens. A general note: Tetrazolium assays rely on reduction of a dye to a coloured formazan, in cell work by metabolically active cells.
The test system of assay [3] is NHDF cells (Normal Human Dermal Fibroblast cell line). As to the kind of experiment: XTT proliferation assay on NHDF cells. It is filed as cell-based. Here is the method: FIGS. 20-23 and Tables F1-F4 relate to a study to determine the potency of novel natural extract compounds in inhibiting the proliferation of Normal Human Dermal Fibroblast cell line (NHDF cells). […] In this study: Compound I, III and IV which are arrangements of compound according to the present invention are evaluated in a XTT proliferation assay for 72 hours to determine its potency in inhibiting the proliferation of NHDF cells. Traditionally, the in-vitro determination of toxic effects of unknown compounds has been performed by counting viable cells after staining with a vital dye. The XTT system is a mean of measuring the activity of living cells via mitochondrial dehydrogenases. The XTT method is simple, accurate and yields reproducible results. […] Solutions of XTT, prepared in medium or balances salt solutions without phenol red, are yellowish in colour. Mitochondrial dehydrogenases of viable cells cleave the tetrazolium ring of XTT yielding orange formazon crystals which are soluble in aqueous solutions. The resulting orange colour is spectrophotometrically measured. The bio-reduction is XTT is inefficient but can be potentiated by the addition of an electron coupling agent such as phenazine methosulphate (PMS) to the reaction. An increase or decrease in cell numbers results in a concomitant change in the amount of formazon formed, indicating the degree of cytotoxicity caused by the test material. In the foregoing study the following kits and reagents were used: • Cells: NHDF, a Normal Human Dermal Fibroblast cell line (Lonza) • Media: FGM-2 bullet kit media • Cell culture T75 flasks (BD-Falcon-LAB353136) • 96 well cell clear tissue culture treated plates (BD-Falcon-LAB353072) • Dimethyl Sulphoxide (DMSO) (Sigma-D2650) • XT (Sigma-[…]) • PMS (Sigma-[…]) In the foregoing study, three arrangement of compound according to the present invention, which in FIGS. 20-23 and Tables F1-F4 are designated as compounds I, III and IV, were tested. In the foregoing study, the control or vehicle was sterile deionized water. In regard to experimental procedure, for seeding in a 96-well plate, the cells were re-suspended to a density of […] of complete FGM-2 Bullet kit medium. 80 μL of this cell suspension was added per well to seed 2000 cells per well. […] In the foregoing study, the following points relate to compound dilution and treatment: • 20 μL of stock (100×) was serially diluted (2×) in 20 μL of sterile deionized water. • 20 μL of each dilution was then added in triplicates in the previously seeded 96-well plate. • Cells treated with deionized water served as control. • 100 μL of complete Ham's F12 medium served as media blank for the data analysis. • 200 μL of PBS was added in all corner wells of the assay plate. Plate was then incubated for 72 hours in an incubator with 5% CO2 at 37° C. In the foregoing study, the following points relate to termination: • XTT reagent-1 mg/mL solution of XTT was made in serum-free Ham's F12 medium. […] The data was analyzed using GraphPad Prism Software. In regard to data generation in the foregoing study: • Raw data of OD values was obtained in the form of excel sheet from Victor X5 Multi-label Plate Reader. • Average of media blank and average of control was calculated. • Average media blank was subtracted from each experimental well and control.

The subject of assay [4] is mycoplasma. The experiment in a line: Mycoplasma disease treatment. The assay is classed as in vivo. The following applies: three sheep. The protocol:
The experiment was at four sheep farms. The sheep suffered from cough and high temperature (42° C.). When performing autopsy on dead sheep, the congestion in the lungs was clear. […] Ampicillin only affects the cell wall.
Another 10 sick sheep from each farm were isolated and treated with 5 ml of Tylosin and Enrofloxacin.

The test system of assay [5] is Pasteurella. As to the kind of experiment: Pasteurella disease treatment. The settings on record: second group of 10 sheep, both antibiotics together.

In the case of `[H]/N=C(/N)N[C@H]1[C@H](O)[C@@H](O)[C@H](O[C@@H]2O[C@@H](C)[C@](O)(C=O)[C@H]2O[C@@H]2O[C@@H](CO)[C@H](O)[C@@H](O)[C@@H]2NC)[C@@H](N/C(N)=N\[H])[C@@H]1O` [streptomycin], the killing of germs entry in assay [1] is on record as “not all germs were killed”.
Regarding `CC[C@H]1OC(=O)[C@H](C)[C@@H](O[C@H]2C[C@@](C)(OC)[C@@H](O)[C@H](C)O2)[C@H](C)[C@@H](O[C@@H]2O[C@H](C)C[C@H](N(C)C)[C@H]2O)[C@](C)(O)C[C@@H](C)C(=O)[C@H](C)[C@@H](O)[C@]1(C)O` [erythromycin], the killing of germs result in assay [1] is “not all germs were killed”.
The same measure, in the same setting: under `O=C(O)c1cn(C2CC2)c2cc(N3CCNCC3)c(F)cc2c1=O` [ciprofloxacin] stands “not all germs were killed”.
Still for that read-out and setting: under Tylozin stands “not all germs were killed”; under `NCC[C@H](O)C(=O)N[C@@H]1C[C@H](N)[C@@H](O[C@H]2O[C@H](CN)[C@@H](O)[C@H](O)[C@H]2O)[C@H](O)[C@H]1O[C@H]1O[C@H](CO)[C@@H](O)[C@H](N)[C@H]1O` [amikacin], “not all germs were killed”; under `CC1=C(C(=O)O)N2C(=O)[C@@H](NC(=O)[C@H](N)c3ccccc3)[C@H]2SC1` [cephalexin], “not all germs were killed”.
penicillin: the killing of germs result in assay [1] is recorded as “not all germs were killed”.
For the compound Spiramycin, the killing of germs result in assay [1] is recorded as “not all germs were killed”.
Consider `Cc1onc(-c2ccccc2Cl)c1C(=O)N[C@@H]1C(=O)N2[C@@H]1SC(C)(C)[C@@H]2C(=O)O` [cloxacillin], for which, in assay [1], the killing of germs result is “not all germs were killed”.
In assay [2] (Doxorubicin 0.0002 μM), `COc1cccc2c1C(=O)c1c(O)c3c(c(O)c1C2=O)C[C@@](O)(C(=O)CO)C[C@@H]3O[C@H]1C[C@H](N)[C@H](O)[C@H](C)O1` [Doxorubicin] had an inhibition at 0.0002 µM of 16.1%. In assay [2] (Doxorubicin 0.0005 μM), this compound gave an inhibition at 0.0005 µM of 14.9%. Also, the inhibition at 0.0014 µM in assay [2] (Doxorubicin 0.0014 μM) is 22.1%. Moreover, the inhibition at 0.0041 µM in assay [2] (Doxorubicin 0.0041 μM) came out at 28.9%. The compound also displayed an inhibition at 0.0123 µM in assay [2] (Doxorubicin 0.0123 μM) of 63.6%. Besides, 0.037 µM produced 76.4% inhibition in assay [2] (Doxorubicin 0.0370 μM). In addition, 0.1111 µM produced 77.7% inhibition in assay [2] (Doxorubicin 0.1111 μM). This compound also showed an inhibition at 0.3333 µM in assay [2] (Doxorubicin 0.3333 μM) of 91%. The inhibition at 1 µM in assay [2] (Doxorubicin 1 μM) turned out to be 98.2%; in assay [3] (Homo sapiens, Doxorubicin 1 μM), 86.4%. Also, in assay [3] (Doxorubicin 0.000 μM), the “% Inhibition” value came to 24.6%. Besides, the inhibition at 0.001 µM in assay [3] (Homo sapiens, Doxorubicin 0.001 μM) came out at 17.9%. In addition, the inhibition at 0.004 µM in assay [3] (Homo sapiens, Doxorubicin 0.004 μM) was 25.9%. The inhibition at 0.01 µM in assay [3] (Homo sapiens, Doxorubicin 0.01 μM) was 26.9%. In addition, the inhibition at 0.04 µM in assay [3] (Homo sapiens, Doxorubicin 0.04 μM) was 33.9%. Further, in assay [3] (Homo sapiens, Doxorubicin 0.11 μM), the inhibition at 0.11 µM was found to be 37.5%. For the same compound, in assay [3] (Homo sapiens, Doxorubicin 0.33 μM), the inhibition at 0.33 µM amounted to 68.6%. For the same compound, the inhibition at 3 µM in assay [3] (Homo sapiens, Doxorubicin 3 μM) stood at 57.1%.
Turning to gentamicin, in assay [1], the killing of germs entry is given as “not all germs were killed”.
In the case of `CC1(C)S[C@@H]2[C@H](NC(=O)[C@H](N)c3ccccc3)C(=O)N2[C@H]1C(=O)O` [Ampicillin], the outcome of treatment in assay [4] is given as “they were not cured”. Besides, the killing of germs entry in assay [1] is “not all germs were killed”.
On to neomycin, for which the killing of germs result in assay [1] was “not all germs were killed”.
For `CCN1CCN(c2cc3c(cc2F)c(=O)c(C(=O)O)cn3C2CC2)CC1` [enrofloxacin], the “speed of improvement versus product group” value in assay [5] is recorded as “slower than in the first group”. Further, in assay [1], the killing of germs result is on record as “not all germs were killed”.

A word on the inhibition: it is the share of the control response that was lost under treatment. Broadly, the % Inhibition is the relative decrease from the control value, in per cent.
